# Measured values published in paper PMC9643456, “Matching amino acids membrane preference profile to improve activity of antimicrobial peptides” (Communications Biology, 2022).
# Like-named read-outs stand apart in the source and are kept apart here. Square brackets hold non-standard residues; d marks the D form. Peptide text beside a SMILES is read from it.
# Tested on: human red blood cells
# Test: Hemolytic activity
# Assay type: cell-based
# Protocol: Human red blood cells (Zenbio, North Carolina, USA) and peptides were separately diluted in PBS (blood concentration, 8%). The blood cell and peptide solutions were then mixed in 96-well polyethylene plates (SPL, Gyeonggi-do, Korea) and incubated for 18 h at 37 °C. The final concentration of human red blood cells was 4%, while peptide concentrations were 100 μM, 50 μM, 25 μM, 12.5 μM, 6.25 μM, 3.13 μM, 1.56 μM, and 0.78 μM. After incubation, the plates were centrifuged at 1000 × g for 5 min, and the supernatants were transferred to 96-well polyethylene plates. Hemolysis levels were determined by measuring the absorbance at 540 nm with a SpectraMax plate spectrophotometer (Molecular Devices, California, USA). Control samples were treated with 1% Triton X-100 (for 100% hemolysis) or solution with 0 μM peptide (for 0% hemolysis) and melittin (for positive control). Each experiment was performed in triplicate.
structure (smiles),measurement,setting,value
CC[C@@H](C)[C@@H](NC(=O)[C@@H](Cc1c[nH]c2ccccc12)NC(=O)[C@@H](CC(C)C)NC(=O)[C@@H](CC(C)C)NC(=O)[C@H](N)Cc1c[nH]c2ccccc12)C(=O)N[C@H](C)C(=O)N[C@H](CC(C)C)C(=O)N[C@H](CCCNC(=N)N)C(=O)N[C@H](CCCCN)C(=O)N[C@H](CCCCN)C(N)=O [WCopW6] (H-[dW][dL][dL][dW][dI][dA][dL][dR][dK][dK]-NH2),"Hemolysis percent, 25 μM","red cells of human, 18 h, 25",4.12%
same,"Hemolysis percent, 50 μM","red cells of human, 18 h",7.05%
same,"Hemolysis percent, 100 μM","red cells of human, 18 h",18.06%
CC[C@@H](C)[C@@H](NC(=O)[C@@H](Cc1c[nH]c2ccccc12)NC(=O)[C@H](NC(=O)[C@@H](CC(C)C)NC(=O)[C@H](N)Cc1c[nH]c2ccccc12)C(C)C)C(=O)N[C@H](Cc1ccc(O)cc1)C(=O)N[C@@H](C(=O)N[C@H](CCCNC(=N)N)C(=O)N[C@H](CCCCN)C(=O)N[C@H](CCCCN)C(=O)N[C@H](CCCNC(=N)N)C(N)=O)C(C)C [WCopWVY3] (H-[dW][dL][dV][dW][dI][dY][dV][dR][dK][dK][dR]-NH2),"Hemolysis percent, 25 μM","red cells of human, 18 h, 25",1.92%
same,"Hemolysis percent, 50 μM","red cells of human, 18 h",5.67%
same,"Hemolysis percent, 100 μM","red cells of human, 18 h",7.01%
CC[C@@H](C)[C@@H](NC(=O)[C@@H](Cc1c[nH]c2ccccc12)NC(=O)[C@@H](Cc1ccc(O)cc1)NC(=O)[C@@H](CC(C)C)NC(=O)[C@H](N)Cc1c[nH]c2ccccc12)C(=O)N[C@H](CC(C)C)C(=O)N[C@H](CC(C)C)C(=O)N[C@H](CCCNC(=N)N)C(=O)N[C@H](CCCCN)C(=O)N[C@H](CCCCN)C(=O)N[C@H](CCCNC(=N)N)C(N)=O [WCopWYL] (H-[dW][dL][dY][dW][dI][dL][dL][dR][dK][dK][dR]-NH2),"Hemolysis percent, 25 μM","red cells of human, 18 h, 25",2.50%
same,"Hemolysis percent, 50 μM","red cells of human, 18 h",6.29%
same,"Hemolysis percent, 100 μM","red cells of human, 18 h",9.62%
"CCCCCCCCCC(=O)N[C@@H](Cc1c[nH]c2ccccc12)C(=O)N[C@H](CC(N)=O)C(=O)N[C@@H](CC(=O)O)C(=O)N[C@@H]1C(=O)NCC(=O)N[C@@H](CCCN)C(=O)N[C@@H](CC(=O)O)C(=O)N[C@H](C)C(=O)N[C@@H](CC(=O)O)C(=O)NCC(=O)N[C@H](CO)C(=O)N[C@@H]([C@H](C)CC(=O)O)C(=O)N[C@@H](CC(=O)c2ccccc2N)C(=O)O[C@@H]1C [Daptomycin, reference compound]","Hemolysis percent, 25 μM",,0.01 ±0.02%
same,"Hemolysis percent, 25 μM","red cells of human, 18 h, 25",0.01%
same,"Hemolysis percent, 50 μM","red cells of human, 18 h",0.03%
same,"Hemolysis percent, 100 μM","red cells of human, 18 h",0.04 ±0.02%
CC[C@@H](C)[C@@H](NC(=O)[C@@H](Cc1c[nH]c2ccccc12)NC(=O)[C@@H](CC(C)C)NC(=O)[C@H](N)CC(C)C)C(=O)N[C@H](C)C(=O)N[C@H](CC(C)C)C(=O)N[C@H](CCCNC(=N)N)C(=O)N[C@H](CCCCN)C(=O)N[C@H](CCCCN)C(=O)N[C@H](CCCNC(=N)N)C(N)=O [WCopW11] (H-[dL][dL][dW][dI][dA][dL][dR][dK][dK][dR]-NH2),"Hemolysis percent, 25 μM","red cells of human, 18 h, 25",0.94%
same,"Hemolysis percent, 50 μM","red cells of human, 18 h",1.02%
same,"Hemolysis percent, 100 μM","red cells of human, 18 h",1.08%
CC(C)[C@@H](NC(=O)[C@H](N)Cc1c[nH]c2ccccc12)C(=O)N[C@@H](C(=O)N[C@H](Cc1c[nH]c2ccccc12)C(=O)N[C@@H](C(=O)N[C@@H](C(=O)N[C@H](Cc1c[nH]c2ccccc12)C(=O)N[C@H](CCCNC(=N)N)C(=O)N[C@H](CCCNC(=N)N)C(=O)N[C@H](CCCNC(=N)N)C(N)=O)C(C)C)C(C)C)C(C)C [WCopW42] (H-[dW][dV][dV][dW][dV][dV][dW][dR][dR][dR]-NH2),"Hemolysis percent, 25 μM","red cells of human, 18 h, 25",7.14%
same,"Hemolysis percent, 50 μM","red cells of human, 18 h",16.66%
same,"Hemolysis percent, 100 μM","red cells of human, 18 h",26.66%
